Laboratory results: patent US20220378706A1, “PHARMACEUTICAL COMPOSITION COMPRISING PDE9 INHIBITOR” (Eisai R&D Management Co., Ltd., priority 2017, published 2022)
Like-named read-outs stand apart in the source and are kept apart here.

Experiment: Multiple ascending dose study: plasma pharmacokinetics
Assay type: in vivo
Conditions: human, po; for Tmax: read-out: tmax Median
Protocol: Four sequential cohorts of healthy participants (≥50 years and ≤85 years old) were treated with multiple ascending doses of Compound A up to the maximum tolerated dose (MTD). A total of 6 participants per cohort were randomized to Compound A. Proposed doses of Compound A were:
Participants received Compound A capsules, orally once daily (QD) on Days 1 to 14 after an overnight fast of at least 10 hours. Compound A was administered orally with 240 milliliter (mL) (8 fluid ounces) of water.
1) Maximum drug concentration (Cmax) [Time Frame: Day 1 and Day 14]
Blood samples were collected on Day 1 at predose and postdose 0.5 (30 minutes), 1, 1.5, 2, 3, 4, 5, 6, 8, 12, and 18 hours; Day 14 (at predose and postdose 0.5, 1, 1.5, 2, 3, 4, 5, 6, 8, 12, and 18 hours); and Day 15 (24 hours postdose from Day 14).
2) Mean time to reach maximum (peak) drug concentration (tmax) [Time Frame: Day 1 and Day 14]
4) Mean area under the concentration-time curve from zero time extrapolated to infinity (AUC(0-inf)) [Time Frame: Day 14]

COc1ncc(C)c(-c2ccc3c(c2)[nH]c(=O)c2cnn([C@H]4CCOC4)c23)c1C [Compound A, (S)-7-(2-methoxy-3,5-dimethylpyridin-4-yl)-1-(tetrahydrofuran-3-yl)-1H-pyrazolo[4,3-c]quin olin-4(5H)-one]
AUC(0-t) (5 mg, Day 1, 5 mg QD oral, read-out: AUC(0-24 h) GM (% CV)): 344 ng·h/mL
AUC(0-t) (5 mg, Day 1, 5 mg QD oral, read-out: AUC(0-24 h) Mean (SD)): 352 ng·h/mL
AUC(0-t) (5 mg, Day 1, 5 mg QD oral, read-out: AUC(0-24 h) Median): 340 ng·h/mL
Cmax (5 mg, Day 1, 5 mg QD oral, read-out: Cmax GM (% CV)): 26.3 ng/mL
Cmax (5 mg, Day 1, 5 mg QD oral, read-out: Cmax Mean (SD)): 27.4 ng/mL
Cmax (5 mg, Day 1, 5 mg QD oral, read-out: Cmax Median): 26.6 ng/mL
Tmax (5 mg, Day 1, 5 mg QD oral): 4 h
AUC(0-t) (5 mg, Day 14, 5 mg QD oral, read-out: AUC(0-24 h) GM (% CV)): 844 ng·h/mL
AUC(0-t) (5 mg, Day 14, 5 mg QD oral, read-out: AUC(0-24 h) Mean (SD)): 864 ng·h/mL
AUC(0-t) (5 mg, Day 14, 5 mg QD oral, read-out: AUC(0-24 h) Median): 773 ng·h/mL
AUC(0-inf) (5 mg, Day 14, 5 mg QD oral, read-out: AUC(0-inf) GM (% CV)): 2380 ng·h/mL
AUC(0-inf) (5 mg, Day 14, 5 mg QD oral, read-out: AUC(0-inf) Mean (SD)): 2480 ng·h/mL
AUC(0-inf) (5 mg, Day 14, 5 mg QD oral, read-out: AUC(0-inf) Median): 2510 ng·h/mL
Cmax (5 mg, Day 14, 5 mg QD oral, read-out: Cmax GM (% CV)): 58.6 ng/mL
Cmax (5 mg, Day 14, 5 mg QD oral, read-out: Cmax Mean (SD)): 61.7 ng/mL
Cmax (5 mg, Day 14, 5 mg QD oral, read-out: Cmax Median): 49.4 ng/mL
Tmax (5 mg, Day 14, 5 mg QD oral): 4 h
AUC(0-t) (10 mg, Day 1, 10 mg QD oral, read-out: AUC(0-24 h) GM (% CV)): 781 ng·h/mL
AUC(0-t) (10 mg, Day 1, 10 mg QD oral, read-out: AUC(0-24 h) Mean (SD)): 784 ng·h/mL
AUC(0-t) (10 mg, Day 1, 10 mg QD oral, read-out: AUC(0-24 h) Median): 735 ng·h/mL
Cmax (10 mg, Day 1, 10 mg QD oral, read-out: Cmax GM (% CV)): 65.5 ng/mL
Cmax (10 mg, Day 1, 10 mg QD oral, read-out: Cmax Mean (SD)): 66.2 ng/mL
Cmax (10 mg, Day 1, 10 mg QD oral, read-out: Cmax Median): 65.8 ng/mL
Tmax (10 mg, Day 1, 10 mg QD oral): 2 h
AUC(0-t) (10 mg, Day 14, 10 mg QD oral, read-out: AUC(0-24 h) GM (% CV)): 1900 ng·h/mL
AUC(0-t) (10 mg, Day 14, 10 mg QD oral, read-out: AUC(0-24 h) Mean (SD)): 1940 ng·h/mL
AUC(0-t) (10 mg, Day 14, 10 mg QD oral, read-out: AUC(0-24 h) Median): 1980 ng·h/mL
AUC(0-inf) (10 mg, Day 14, 10 mg QD oral, read-out: AUC(0-inf) GM (% CV)): 5100 ng·h/mL
AUC(0-inf) (10 mg, Day 14, 10 mg QD oral, read-out: AUC(0-inf) Mean (SD)): 5260 ng·h/mL
AUC(0-inf) (10 mg, Day 14, 10 mg QD oral, read-out: AUC(0-inf) Median): 5360 ng·h/mL
Cmax (10 mg, Day 14, 10 mg QD oral, read-out: Cmax GM (% CV)): 135 ng/mL
Cmax (10 mg, Day 14, 10 mg QD oral, read-out: Cmax Mean (SD)): 137 ng/mL
Cmax (10 mg, Day 14, 10 mg QD oral, read-out: Cmax Median): 144 ng/mL
Tmax (10 mg, Day 14, 10 mg QD oral): 1.5 h
AUC(0-t) (25 mg, Day 1, 25 mg QD oral, read-out: AUC(0-24 h) GM (% CV)): 1650 ng·h/mL
AUC(0-t) (25 mg, Day 1, 25 mg QD oral, read-out: AUC(0-24 h) Mean (SD)): 1670 ng·h/mL
AUC(0-t) (25 mg, Day 1, 25 mg QD oral, read-out: AUC(0-24 h) Median): 1700 ng·h/mL
Cmax (25 mg, Day 1, 25 mg QD oral, read-out: Cmax GM (% CV)): 125 ng/mL
Cmax (25 mg, Day 1, 25 mg QD oral, read-out: Cmax Mean (SD)): 129 ng/mL
Cmax (25 mg, Day 1, 25 mg QD oral, read-out: Cmax Median): 136 ng/mL
Tmax (25 mg, Day 1, 25 mg QD oral): 3.01 h
AUC(0-t) (25 mg, Day 14, 25 mg QD oral, read-out: AUC(0-24 h) GM (% CV)): 5140 ng·h/mL
AUC(0-t) (25 mg, Day 14, 25 mg QD oral, read-out: AUC(0-24 h) Mean (SD)): 5210 ng·h/mL
AUC(0-t) (25 mg, Day 14, 25 mg QD oral, read-out: AUC(0-24 h) Median): 4760 ng·h/mL
AUC(0-inf) (25 mg, Day 14, 25 mg QD oral, read-out: AUC(0-inf) GM (% CV)): 15400 ng·h/mL
AUC(0-inf) (25 mg, Day 14, 25 mg QD oral, read-out: AUC(0-inf) Mean (SD)): 16200 ng·h/mL
AUC(0-inf) (25 mg, Day 14, 25 mg QD oral, read-out: AUC(0-inf) Median): 14000 ng·h/mL
Cmax (25 mg, Day 14, 25 mg QD oral, read-out: Cmax GM (% CV)): 332 ng/mL
Cmax (25 mg, Day 14, 25 mg QD oral, read-out: Cmax Mean (SD)): 336 ng/mL
Cmax (25 mg, Day 14, 25 mg QD oral, read-out: Cmax Median): 318 ng/mL
Tmax (25 mg, Day 14, 25 mg QD oral): 3 h
AUC(0-t) (50 mg, Day 1, 50 mg QD oral, read-out: AUC(0-24 h) GM (% CV)): 2970 ng·h/mL
AUC(0-t) (50 mg, Day 1, 50 mg QD oral, read-out: AUC(0-24 h) Mean (SD)): 3110 ng·h/mL
AUC(0-t) (50 mg, Day 1, 50 mg QD oral, read-out: AUC(0-24 h) Median): 3060 ng·h/mL
Cmax (50 mg, Day 1, 50 mg QD oral, read-out: Cmax GM (% CV)): 214 ng/mL
Cmax (50 mg, Day 1, 50 mg QD oral, read-out: Cmax Mean (SD)): 237 ng/mL
Cmax (50 mg, Day 1, 50 mg QD oral, read-out: Cmax Median): 226 ng/mL
Tmax (50 mg, Day 1, 50 mg QD oral): 3.53 h
AUC(0-t) (50 mg, Day 14, 50 mg QD oral, read-out: AUC(0-24 h) GM (% CV)): 11500 ng·h/mL
AUC(0-t) (50 mg, Day 14, 50 mg QD oral, read-out: AUC(0-24 h) Mean (SD)): 11800 ng·h/mL
AUC(0-t) (50 mg, Day 14, 50 mg QD oral, read-out: AUC(0-24 h) Median): 10900 ng·h/mL
AUC(0-inf) (50 mg, Day 14, 50 mg QD oral, read-out: AUC(0-inf) GM (% CV)): 38600 ng·h/mL
AUC(0-inf) (50 mg, Day 14, 50 mg QD oral, read-out: AUC(0-inf) Mean (SD)): 40700 ng·h/mL
AUC(0-inf) (50 mg, Day 14, 50 mg QD oral, read-out: AUC(0-inf) Median): 38100 ng·h/mL
Cmax (50 mg, Day 14, 50 mg QD oral, read-out: Cmax GM (% CV)): 778 ng/mL
Cmax (50 mg, Day 14, 50 mg QD oral, read-out: Cmax Mean (SD)): 788 ng/mL
Cmax (50 mg, Day 14, 50 mg QD oral, read-out: Cmax Median): 807 ng/mL
Tmax (50 mg, Day 14, 50 mg QD oral): 1.5 h
AUC(0-t) (50 mg, Part C, 50 mg oral, read-out: AUC (0-24 h) GM (% CV)): 10500 ng·h/mL
AUC(0-t) (50 mg, Part C, 50 mg oral, read-out: AUC (0-24 h) Mean (SD)): 10800 ng·h/mL
AUC(0-t) (50 mg, Part C, 50 mg oral, read-out: AUC (0-24 h) Median): 10600 ng·h/mL
